Legend:
[1] = Odor evaluation for ultraviolet absorbers after a time has elapsed (storage for 3 weeks); assay type: physicochemical; details: 10 ranks: 1, no odor, 10, very intense odor; for Odor evaluation for ultraviolet absorber after a time has elapsed: In the dark: stored in the dark at 50° C. for 3 weeks; for Odor evaluation for ultraviolet absorber after a time has elapsed: In the light: stored in the light at 20° C., 1000 lux for 3 weeks
Description: Odor Evaluation for Ultraviolet Absorbers After a Time Has Elapsed 100 ml of each ultraviolet absorber was filled into two different 200-ml sample bottles, and one bottle was stored in the dark (at 50° C.) and the other in the light (at 20° C., 1000 lux) for 3 weeks. The intensity of overall odor and that of irritating odor were evaluated using one of 10 ranks: 1, no odor; . . .; 10, very intense odor and scored.

[2] = Hue evaluation for ultraviolet absorbers, Hazen color (APHA), Lovibond Nessleriser 2150; assay type: physicochemical
Description: Hue Evaluation for Ultraviolet Absorbers
Hazen color (APHA) was measured using Lovibond Nessleriser 2150.

Odor evaluation for ultraviolet absorber after a time has elapsed: In the dark [1]	Odor evaluation for ultraviolet absorber after a time has elapsed: In the light [1]	Evaluation for ultraviolet absorber: Hue [2]	SMILES
2	1	10 APHA	CCCCC(CC)COC(=O)C=Cc1ccc(OC)cc1 (stereo not drawn) [Example 1, 2-ethylhexyl p-methoxycinnamate]
2	1	10 APHA	CCCCC(CC)COC(=O)C=Cc1ccc(OC)cc1 (stereo not drawn) [Example 2, 2-ethylhexyl p-methoxycinnamate]
2	1	10 APHA	CCCCC(CC)COC(=O)C=Cc1ccc(OC)cc1 (stereo not drawn) [Example 3, 2-ethylhexyl p-methoxycinnamate]
2	1	10 APHA	CCCCC(CC)COC(=O)C=Cc1ccc(OC)cc1 (stereo not drawn) [Example 4, 2-ethylhexyl p-methoxycinnamate]
5	4	40 APHA	CCCCC(CC)COC(=O)C=Cc1ccc(OC)cc1 (stereo not drawn) [compound 1, 2-ethylhexyl p-methoxycinnamate]
5	4	10 APHA	CCCCC(CC)COC(=O)C=Cc1ccc(OC)cc1 (stereo not drawn) [compound 2, 2-ethylhexyl p-methoxycinnamate]
4	4	40 APHA	CCCCC(CC)COC(=O)C=Cc1ccc(OC)cc1 (stereo not drawn) [compound 3, 2-ethylhexyl p-methoxycinnamate]
4	3	10 APHA	CCCCC(CC)COC(=O)C=Cc1ccc(OC)cc1 (stereo not drawn) [compound 4, 2-ethylhexyl p-methoxycinnamate]
3	3	20 APHA	CCCCC(CC)COC(=O)C=Cc1ccc(OC)cc1 (stereo not drawn) [compound 5, 2-ethylhexyl p-methoxycinnamate]
3	2	20 APHA	CCCCC(CC)COC(=O)C=Cc1ccc(OC)cc1 (stereo not drawn) [compound 6, 2-ethylhexyl p-methoxycinnamate]
3	2	10 APHA	CCCCC(CC)COC(=O)C=Cc1ccc(OC)cc1 (stereo not drawn) [compound 7, 2-ethylhexyl p-methoxycinnamate]
3	2	20 APHA	CCCCC(CC)COC(=O)C=Cc1ccc(OC)cc1 (stereo not drawn) [compound 8, 2-ethylhexyl p-methoxycinnamate]
2	3	10 APHA	CCCCC(CC)COC(=O)C=Cc1ccc(OC)cc1 (stereo not drawn) [compound 9, 2-ethylhexyl p-methoxycinnamate]

Source: patent publication US20060193796A1, “Method for refining ultraviolet absorbent, ultraviolet absorbent and cosmetic material” (priority 2003, published 2006)
